From patent US20250026724A1, “(1,4,5-TRISUBSTITUTED 1H-PYRAZOL-3-YL)OXY-2-ALKYLTHIOALKYL ACIDS AND -ALKYL ACID DERIVATIVES, SALTS THEREOF AND USE THEREOF AS ACTIVE HERBICIDAL INGREDIENTS” (BAYER AKTIENGESELLSCHAFT, priority 2021, published 2025)

Experiments:
Format in all cases: in vivo
[1] = tested on: Echinochloa crus-galli (ECHCG); assay: Post-emergence herbicidal action, greenhouse pot trial; conditions: visual rating after about 3 weeks
How it was run: (§1)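 Sandy loam pots, greenhouse; one-leaf stage (2–3 wk after sowing); WP/EC in water, 0.5% additive, 600 l/ha spray volume; ≤320 g/ha; visual score vs untreated at ~3 wk, 0–100%.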

[2] = tested on: Abutilon theophrasti (ABUTH); assay: as above; conditions: visual rating after about 3 weeks
How it was run: as §1

[3] = tested on: Polygonum convolvulus (POLCO); assay: as above; conditions: visual rating after about 3 weeks
How it was run: as §1

Setaria viridis (SETVI) = assay: as above; conditions: 320 g/ha, visual rating after about 3 weeks
How it was run: as §1

Bassia scoparia (KCHSC) = assay: as above
How it was run: as §1

[4] = tested on: Amaranthus retroflexus (AMARE); assay: as above; conditions: visual rating after about 3 weeks
How it was run: as §1

Viola tricolor (VIOTR) = assay: as above
How it was run: as §1

[5] = tested on: Pharbitis purpurea (PHBPU); assay: as above; conditions: visual rating after about 3 weeks
How it was run: as §1

Zea mays (ZEAMX) = assay: Post-emergence crop plant compatibility, greenhouse pot trial; conditions: in comparison to untreated controls
Description: (§2) Seeds of monocotyledonous and dicotyledonous weeds and crop plants are placed in sandy loam in plastic or organic planting pots, covered with soil and cultivated in a greenhouse under controlled growth conditions. 2 to 3 weeks after sowing, the trial plants are treated at the one-leaf stage. The compounds of the invention, formulated in the form of wettable powders (WP) or as emulsion concentrates (EC), are then sprayed onto the green parts of the plants as aqueous suspension or emulsion with addition of 0.5% additive at a water application rate equivalent to 600 l/ha. After about 3 weeks of keeping the trial plants in the greenhouse under optimum growth conditions, the effect of the preparations is rated visually in comparison to untreated controls. For example, 100% activity=the plants have died, 0% activity=like control plants.
(§3) The observed effects on selected crop plants are reported here in comparison to the untreated controls (values in %). The appendices “a”, “b” and “c” give differentiation by dosage used with otherwise the same useful plants tested.
(§4) As shown by results from Tables B1 to B19, inventive compounds of the general formula (I) in the case of post-emergence treatment have good herbicidal efficacy against harmful plants, for example Abutilon theophrasti (ABUTH), Alopecurus myosuroides (ALOMY), Amaranthus retroflexus (AMARE), Avena fatua (AVEFA), Digitaria sanguinalis (DIGSA), Echinochloa crus-galli (ECHCG), Bassia scoparia (KCHSC), Lolium rigidum (LOLRI), Matricaria inodora (MATIN), Pharbitis purpurea (PHBPU), Polygonum convolvulus (POLCO), Setaria viridis (SETVI), Veronica persica (VERPE) and Viola tricolor (VIOTR) at an application rate of 320 g of active substance or less per hectare, and good crop plant compatibility in the case of organisms such as Oryza sativa (ORYSA), Zea mays (ZEAMX), Brassica napus (BRSNW), Glycine max (GLXMA) and Triticum aestivum (TRZAS) at an application rate of 320 g or less per hectare.

[6] = tested on: Triticum aestivum (TRZAS); assay: as above; conditions: 20 g/ha, post-emergence, in comparison to untreated controls
Description: as §2, §3, §4

[7] = tested on: Alopecurus myosuroides (ALOMY); assay: Post-emergence herbicidal action, greenhouse pot trial; conditions: 320 g/ha, visual rating after about 3 weeks
How it was run: as §1

[8] = tested on: Matricaria inodora (MATIN); assay: as above; conditions: visual rating after about 3 weeks
How it was run: as §1

Lolium rigidum (LOLRI) = assay: as above; conditions: 320 g/ha, visual rating after about 3 weeks
How it was run: as §1

[9] = tested on: Digitaria sanguinalis (DIGSA); assay: as above; conditions: visual rating after about 3 weeks
How it was run: as §1

Avena fatua (AVEFA) = assay: as above; conditions: 320 g/ha, visual rating after about 3 weeks
How it was run: as §1

Glycine max (GLXMA) = assay: Post-emergence crop plant compatibility, greenhouse pot trial; conditions: in comparison to untreated controls
Description: as §2, §3, §4

Veronica persica (VERPE) = assay: Post-emergence herbicidal action, greenhouse pot trial; conditions: visual rating after about 3 weeks
How it was run: as §1

SMILES	Post-emergence effect at 320 g/ha against ECHCG in % [1] [%]	Post-emergence effect at 80 g/ha against ABUTH in % [2] [%]	Post-emergence effect at 320 g/ha against ABUTH in % [2] [%]	Post-emergence effect at 80 g/ha against POLCO in % [3] [%]	Post-emergence effect at 320 g/ha against POLCO in % [3] [%]	Post-emergence effect at 320 g/ha against SETVI in % (Setaria viridis (SETVI)) [%]	Post-emergence effect against KCHSC (Bassia scoparia (KCHSC); 320 g/ha) [%]	Post-emergence effect at 320 g/ha against AMARE in % [4] [%]	Post-emergence effect against VIOTR (Viola tricolor (VIOTR); 20 g/ha) [%]	Post-emergence effect against VIOTR (Viola tricolor (VIOTR); 80 g/ha) [%]	Post-emergence effect against VIOTR (Viola tricolor (VIOTR); 320 g/ha) [%]	Post-emergence effect at 80 g/ha against PHBPU in % [5] [%]	Post-emergence effect at 320 g/ha against PHBPU in % [5] [%]	Post-emergence effect against ZEAMX (crop plant compatibility) (Zea mays (ZEAMX); 20 g/ha) [%]	Post-emergence effect against TRZAS (crop plant compatibility) [6] [%]	Post-emergence effect at 80 g/ha against MATIN in % [8] [%]	Post-emergence effect at 320 g/ha against MATIN in % [8] [%]	Post-emergence effect at 320 g/ha against LOLRI in % (Lolium rigidum (LOLRI)) [%]	Post-emergence effect at 320 g/ha against DIGSA in % [9] [%]	Post-emergence effect at 320 g/ha against AVEFA in % (Avena fatua (AVEFA)) [%]	other results
COC(=O)CCOC(=O)C(Oc1nn(-c2ncccc2F)c(-c2ccc(F)nc2)c1Br)SC (single isomer, unassigned) [Example I-22]	90	90	90	90	90	80	90	80	80	90	90	90	90	0	0						Post-emergence effect at 20 g/ha against PHBPU in % ([5]; 20 g/ha): 80%
COC(=O)CCOC(=O)C(Oc1nn(-c2ncccc2F)c(-c2ccc(F)nc2)c1Br)SC (single isomer, unassigned) [Example I-23]	90	80	90	80	90	90		80		80	90	80	90	0		80	90	90	90	80	Post-emergence effect at 320 g/ha against ALOMY in % [7]: 80%; Post-emergence effect at 80 g/ha against ECHCG in % ([1]; 80 g/ha): 90%; Post-emergence effect at 80 g/ha against DIGSA in % [9]: 90%
COC(=O)CCOC(=O)C(Oc1nn(-c2ncccc2F)c(-c2cncc(F)c2)c1Br)SC (centres unmarked) [Example I-45]	90	90	90	80	80	90	90	90	80	90	90	80	80	0	0	90	90	100	90	100	Post-emergence effect at 20 g/ha against MATIN in % ([8]; 20 g/ha): 80%; Post-emergence action at 20 g/ha against ABUTH in % [2]: 90%; Post-emergence effect at 80 g/ha against DIGSA in % [9]: 80%; Post-emergence effect at 20 g/ha against KCHSC in % (Bassia scoparia (KCHSC); 20 g/ha, visual rating after about 3 weeks): 90%; Post-emergence effect against KCHSC (Bassia scoparia (KCHSC); 80 g/ha): 90%; Post-emergence effect at 20 g/ha against AMARE in % [4]: 80%; Post-emergence effect at 80 g/ha against AMARE in % [4]: 90%; Post-emergence effect against ZEAMX (crop plant compatibility) (Zea mays (ZEAMX); 80 g/ha): 0%
COC(=O)C(C)COC(=O)C(Oc1nn(-c2ccccc2F)c(-c2ccc(F)nc2)c1I)SC (centres unmarked) [Example I-53]	100		80		90	90	80	90		80	90		80		0		80		80		Post-emergence effect against GLXMA (crop plant compatibility) (Glycine max (GLXMA); 20 g/ha): 0%; Post-emergence effect against GLXMA (crop plant compatibility) (Glycine max (GLXMA); 80 g/ha): 0%
COC(=O)CCOC(=O)C(Oc1nn(-c2ncccc2F)c(-c2cncc(F)c2)c1C1CC1)SC (centres unmarked) [Example I-63]	90	80	90		80	90	90	90	90	90	90	90	90	0	20	80	90	90		100	Post-emergence effect at 80 g/ha against VERPE in % (Veronica persica (VERPE); 80 g/ha): 80%; Post-emergence effect at 320 g/ha against VERPE in % (Veronica persica (VERPE); 320 g/ha): 90%; Post-emergence action at 20 g/ha against ABUTH in % [2]: 80%; Post-emergence effect at 20 g/ha against AMARE in % [4]: 80%; Post-emergence effect at 80 g/ha against AMARE in % [4]: 80%
